# In the supplement of paper PMC10627819:
# Assays:
# [1] = tested on: S. aureus Newman; test: fitness (endpoint OD595 vs no drug) (fraction); higher = more growth
# Procedure, shortened: (§1)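 Fitness is computed from the optical density at which cultures reach stationary phase, divided by the robust mean of no-drug control wells. Any value above 1 is set to 1. Cultures started at OD595 0.01 in 384-well plates with TSB, LB Lennox or CY at 37 °C, and OD595 was read every 30 min for 14 h against a first-reading background.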
# [2] = tested on: S. aureus DSM 20231; test: as above
# Procedure, shortened: as §1
# [3] = tested on: B. subtilis 168; test: Bliss interaction score (quartile over a dose matrix) (fitness difference); higher = more antagonism (negative = synergy)
# Procedure, shortened: (§2)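 Growth was read as OD595 when cultures entered stationary phase, and each value was divided by the plate's robust no-drug mean and capped at 1. This normalised ratio is the fitness value, and fitness for each single drug came from the combination data. The Bliss score subtracts the expected fitness, taken as the product, from the observed fitness and is given as quartiles across technical, biological and donor/recipient replicates.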
# [4] = tested on: S. aureus Newman; test: as above
# Procedure, shortened: as §2
# [5] = tested on: S. pneumoniae D39V; test: as above
# Procedure, shortened: as §2
# [6] = tested on: S. aureus DSM 20231; test: as above
# Procedure, shortened: as §2
# [7] = first compound 0.125 µg/mL, partner 0.1875 µg/mL
# [8] = first compound 0.125 µg/mL, partner 0.375 µg/mL
# [9] = first compound 0.125 µg/mL, partner 0.75 µg/mL
# [10] = first compound 0.25 µg/mL, partner 0.1875 µg/mL
# [11] = first compound 0.25 µg/mL, partner 0.375 µg/mL
# [12] = first compound 0.25 µg/mL, partner 0.75 µg/mL
# [13] = first compound 0.125 µg/mL, partner 0.0625 µg/mL
# [14] = first compound 0.125 µg/mL, partner 0.125 µg/mL
# [15] = first compound 0.25 µg/mL, partner 0.0625 µg/mL
# [16] = first compound 0.25 µg/mL, partner 0.125 µg/mL
# 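Wherever Bliss interaction score (quartile over a dose matrix) is given: first quartile when negative (synergy) and third quartile when positive (antagonism).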
# 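Wherever fitness (endpoint OD595 vs no drug) is given: OD595 on entry to stationary phase over no-drug wells; at most 1.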
SMILES,"fitness [1, 7]","fitness [1, 8]","fitness [1, 9]","fitness [1, 10]","fitness [1, 11]","fitness [1, 12]","fitness [2, 7]","fitness [2, 8]","fitness [2, 9]","fitness [2, 10]","fitness [2, 11]","fitness [2, 12]",Bliss interaction score [3],Bliss interaction score [4],Bliss interaction score [5],Bliss interaction score [6],"fitness [1, 13]","fitness [1, 14]","fitness [1, 15]","fitness [1, 16]","fitness [2, 13]","fitness [2, 14]","fitness ([2]; first compound 0.125 µg/mL, partner 0.25 µg/mL)","fitness [2, 15]","fitness [2, 16]","fitness ([2]; first compound 0.25 µg/mL, partner 0.25 µg/mL)","fitness ([2]; first compound 0.5 µg/mL, partner 0.125 µg/mL)","fitness ([2]; first compound 0.5 µg/mL, partner 0.25 µg/mL)"
CC[C@H]1OC(=O)[C@H](C)[C@@H](O[C@H]2C[C@@](C)(OC)[C@@H](O)[C@H](C)O2)[C@H](C)[C@@H](O[C@@H]2O[C@H](C)C[C@H](N(C)C)[C@H]2O)[C@](C)(O)C[C@@H](C)CN(C)[C@H](C)[C@@H](O)[C@]1(C)O [Azithromycin] + CN[C@H](CC(C)C)C(=O)N[C@H]1C(=O)N[C@@H](CC(N)=O)C(=O)N[C@H]2C(=O)N[C@H]3C(=O)N[C@H](C(=O)N[C@H](C(=O)O)c4cc(O)cc(O)c4-c4cc3ccc4O)[C@H](O)c3ccc(c(Cl)c3)Oc3cc2cc(c3O[C@@H]2O[C@H](CO)[C@@H](O)[C@H](O)[C@H]2O[C@H]2C[C@](C)(N)[C@H](O)[C@H](C)O2)Oc2ccc(cc2Cl)[C@H]1O [Vancomycin],0.909,0.906,0.882,0.855,0.893,0.862,0.846,0.875,0.898,0.819,0.874,0.829,-0.0288,-0.104,-0.0427,0.0943,–,–,–,–,–,–,–,–,–,–,–,–
CC[C@H]1OC(=O)[C@H](C)[C@@H](O[C@H]2C[C@@](C)(OC)[C@@H](O)[C@H](C)O2)[C@H](C)[C@@H](O[C@@H]2O[C@H](C)C[C@H](N(C)C)[C@H]2O)[C@](C)(O)C[C@@H](C)CN(C)[C@H](C)[C@@H](O)[C@]1(C)O [Azithromycin] + Cn1nnc(-c2ccc(-c3ccc(N4C[C@H](CO)OC4=O)cc3F)cn2)n1 [Tedizolid],–,–,–,–,–,–,–,–,–,–,–,–,-0.0935,-0.14,0.0648,-0.0615,0.867,0.744,0.818,0.644,0.887,0.7,0.165,0.765,0.667,0.231,0.294,0.0821
